Laboratory results reported in article PMC10787068, “Targeting the Mitochondrial Chaperone TRAP1 Alleviates Vascular Pathologies in Ischemic Retinopathy” (Advanced Science, 2023).

Tests used:
[1] = tested on: HIF1α; assay: HIF1α degradation in MIO‐M1 cells under hypoxia (western blotting); assay type: cell-based, human; details: MIO‐M1 cells, 6 h under hypoxia
[2] = Normal cell cytotoxicity in primary Müller cells (trypan blue staining); assay type: cell-based; details: mouse, primary Müller cells from mouse retina, 24 hr under hypoxia, n = 4, mean ± SEM
Protocol: (§1) Mouse primary Müller cells were isolated as reported previously.^[ [43] ^] In brief, retinas were isolated from P5–P7 mice and dissociated using a Papain Dissociation Kit (Worthington Industries; Columbus, OH, USA). Collected retinal cells were incubated on a plate coated with 0.1% gelatin (Sigma), and the culture media (DMEM supplemented with 10% FBS and 1% penicillin‐streptomycin) was changed once every 2 days. Cells were subcultured into a new plate and incubated for another 7 days. Adherent cells were largely primary Müller cells, as confirmed by immunocytochemical analysis using an anti‐glutamine synthetase antibody (Millipore). […]
(§2) bar, 500 μm. B) Quantification of avascular and neovascular tuft areas in OIR mice intravitreally injected with MitoQ (n = 5 mice/group). […] Harvested retinal samples were whole-mounted and analyzed as in (A). […]
(§3) Scale bar, 500 μm. D) Quantification of avascular and neovascular tuft areas in OIR mice topically treated with MitoQ (n = 6 mice/group). […]
(§4) their cytotoxic activities were analyzed in four independent experiments by trypan blue staining. The calculated IC50 values are presented in the normal cell cytotoxicity column in Table 1. […] A 3D culture of human corneal epithelium (MCTT HCE) was incubated with 2 mM TRAP1 inhibitors and analyzed by H&E staining.
(§5) The culture thickness (n = 5) was measured and analyzed (Table S1). […]

[3] = tested on: mouse primary Müller cells; assay: as above; assay type: cell-based; details: 24 hr under hypoxia, n = 4, mean ± SEM
Protocol: as §1, §2, §3, §4, §5

[4] = Eye irritation test with MCTT HCE (OECD test guideline 492); assay type: cell-based, human; details: human; 3D culture MCTT HCE, TRAP1 inhibitors at 2 mM, WST-1 assay, n = 4, mean ± SEM; read-out: Percentage viability (%)
Protocol: (§6) An eye irritation test was performed using a 3D human corneal epithelial (HCE) model, called MCTT HCE (KeraSkin; Biosolution, Seoul, Republic of Korea), for OECD test guideline 492, following the manufacturer's instructions. In brief, HCE tissues were incubated overnight in medium provided by the supplier. Thereafter, 2 mM MitoQ, SB‐U014, and SB‐U015 were applied to the upper epithelial surface of HCE tissues and incubated for 10 min. After removing the drugs by washing the tissues with PBS, the tissues were further incubated for 16 h, and then subjected to the WST‐1 assay for viability assessment and fixed in 4% PFA for histological analysis. […]
as §4
(§7) The culture thickness (n = 5) was measured and analyzed (Table S1). […] After topical application of 2 mM MitoQ, SB-U014, or SB-U015 once daily for 6 days, the mouse cornea was harvested and analyzed by H&E staining. […]
(§8) A 3D culture of human corneal epithelium (MCTT HCE) was incubated with 2 mM TRAP1 inhibitors, and the percentage viability was analyzed by the WST-1 assay (n = 4). Absorbance was measured with a microplate reader. […]

[5] = tested on: 3D human corneal epithelial (HCE) model, MCTT HCE; assay: as above; assay type: cell-based; details: 3D culture MCTT HCE, TRAP1 inhibitors at 2 mM, H&E staining images, n = 5, mean ± SEM
Protocol: as §6, §4, §7, §8

[6] = tested on: mouse cornea; assay: Corneal toxicity after topical application (H&E staining); assay type: in vivo; details: 2 mM once daily for 6 days
Protocol: their cytotoxic activities were analyzed in four independent experiments by trypan blue staining. The calculated IC50 values are presented in the normal cell cytotoxicity column in Table 1. B) Topical toxicity of TRAP1 inhibitors. A 3D culture of human corneal epithelium (MCTT HCE) was incubated with 2 mM TRAP1 inhibitors and analyzed by H&E staining.
The culture thickness (n = 5) was measured and analyzed (Table S1). Scale bar, 25 μm. C) Corneal toxicity. After topical application of 2 mM MitoQ, SB-U014, or SB-U015 once daily for 6 days, the mouse cornea was harvested and analyzed by H&E staining. Treatment with […]
Supplementary Table 1. Percentage viability and thickness of the 3D culture of MCTT […]
Drug Percentage viability (%) Thickness (μm)
as §8, with “reader. Thickness was calculated from H&E staining images (n = 5) as in Figure S18B, Supporting information. Data Information: The data are” for “reader.”

[7] = tested on: calpain; assay: Calpain activity assay in MIO‐M1 cells; assay type: cell-based, human; details: 3 µM gamitrinib or 0.5 µM MitoQ, 6 h under hypoxia, fluorogenic calpain substrate, n = 4
Protocol: Figure 5 TRAP1 inhibition induces mPTP opening, mitochondrial calcium discharge, and calpain‐1 activation. A) Visualization of cytoplasmic calcium. Fluo‐4 AM‐labeled MIO‐M1 cells were incubated with the TRAP1 inhibitors gamitrinib and MitoQ^[ [32], [41] ^] for 6 h or thapsigargin for 30 min under hypoxia, and analyzed by confocal microscopy. Scale bars, 10 µm and 2 µm (inset). […] MIO‐M1 cells were treated with a TRAP1 inhibitor, 3 µM gamitrinib or 0.5 µM MitoQ, for 6 h under hypoxia (n = 4). Enzyme activity was measured using a fluorogenic calpain substrate as described in the Experimental Section. C) Restored HIF1α expression upon CypD inhibition. MIO‐M1 cells were incubated with control or CypD‐targeting siRNAs, treated with the TRAP1 inhibitor MitoQ for 6 h under hypoxia, harvested, and analyzed by western blotting. Black and red arrows indicate pro and autolyzed forms of calpain‐1, respectively. […] MIO‐M1 cells were incubated with TRAP1‐targeting siRNAs for 48 h, exposed to hypoxia for 6 h, harvested, and analyzed by qPCR (n = 4). […] Cells were then analyzed by flow cytometry to detect cytoplasmic calcium. […] MIO‐M1 cells were incubated with TRAP1 inhibitors, 3 µM gamitrinib, and 0.5 µM MitoQ, and a cell‐permeable calcium chelator, BAPTA (10 µM), for 6 h as indicated under hypoxia and analyzed by western blotting. […] Data information: Data are expressed as mean ± SEM. […]

In the case of `COC1=C(OC)C(=O)C(CCCCCCCCCC[P+](c2ccccc2)(c2ccccc2)c2ccccc2)=C(C)C1=O` [MitoQ, mitoquinone], the IC50 ([1]; Homo sapiens, western blot band intensity, n = 4, mean ± SEM) is reported as 0.077 ± 0.016 µM, the “potency in inducing the degradation of HIF1α relative to gamitrinib” value [1] is reported as “more than 10 fold” and the IC50 at 24 h [2] is reported as 22 µM. For the same molecule, the IC50 [3] was 22.5 ± 0.46 µM, the viability at 10 min, 2 mM [4] was 63.47 ± 0.23% and the “Thickness (μm)” value [5] was 53.43 ± 2.79 μm. For the same molecule, the “histologic abnormality of cornea after topical application” value [6] was “did not cause any noticeable abnormality” and the calpain enzyme activity [7] was “Calpain activation”.
